Measurements: ChEMBL document CHEMBL1201862, “PubChem BioAssay data set” (2004)
Active and inactive are the calls of the source. Non-standard residues stand in square brackets, D forms with d. Residues, ends and D or L forms follow the SMILES beside them. ξ: configuration not given here. *: point of attachment. Trx = NC[C@H]1CC[C@H](C(=O)O)CC1; Tic = O=C(O)[C@@H]1Cc2ccccc2CN1; Ile(3ξ) = CCC(C)[C@H](N)C(=O)O; Boc = CC(C)(C)OC(=O)*

Columns and labels:
[1] = target: T1, High affinity choline transporter 1 (Homo sapiens, UniProt Q9GZV3); assay: human choline transporter blockers, potency – cell-based, 5-point CRC, membrane potential dye, dose response (AID 504840); assay type: functional
T1 sequence (Q9GZV3 whole entry): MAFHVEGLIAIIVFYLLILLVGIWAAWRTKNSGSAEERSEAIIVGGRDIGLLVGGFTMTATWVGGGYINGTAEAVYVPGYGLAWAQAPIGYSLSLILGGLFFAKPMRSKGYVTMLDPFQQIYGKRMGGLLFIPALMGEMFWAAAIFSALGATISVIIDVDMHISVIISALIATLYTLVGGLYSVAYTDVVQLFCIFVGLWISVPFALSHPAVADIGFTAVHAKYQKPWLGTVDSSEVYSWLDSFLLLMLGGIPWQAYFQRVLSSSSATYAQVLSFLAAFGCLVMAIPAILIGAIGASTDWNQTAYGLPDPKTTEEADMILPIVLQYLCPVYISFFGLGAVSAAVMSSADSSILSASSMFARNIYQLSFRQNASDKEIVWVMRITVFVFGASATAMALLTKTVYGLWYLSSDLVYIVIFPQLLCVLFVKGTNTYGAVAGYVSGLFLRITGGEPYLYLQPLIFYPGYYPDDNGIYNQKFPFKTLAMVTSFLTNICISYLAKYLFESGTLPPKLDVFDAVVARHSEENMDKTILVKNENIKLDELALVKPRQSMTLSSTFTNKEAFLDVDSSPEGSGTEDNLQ

[2] = target: T2, Corticotropin-releasing factor receptor 2/Corticotropin-releasing factor-binding protein (Homo sapiens, UniProt P24387+Q13324); assay: activators of CRF receptor 2 with binding protein – uHTS hits, confirmation (AID 602473); assay type: functional; conditions: read-out: EC50_Mean
T2 sequence (Q13324 whole entry): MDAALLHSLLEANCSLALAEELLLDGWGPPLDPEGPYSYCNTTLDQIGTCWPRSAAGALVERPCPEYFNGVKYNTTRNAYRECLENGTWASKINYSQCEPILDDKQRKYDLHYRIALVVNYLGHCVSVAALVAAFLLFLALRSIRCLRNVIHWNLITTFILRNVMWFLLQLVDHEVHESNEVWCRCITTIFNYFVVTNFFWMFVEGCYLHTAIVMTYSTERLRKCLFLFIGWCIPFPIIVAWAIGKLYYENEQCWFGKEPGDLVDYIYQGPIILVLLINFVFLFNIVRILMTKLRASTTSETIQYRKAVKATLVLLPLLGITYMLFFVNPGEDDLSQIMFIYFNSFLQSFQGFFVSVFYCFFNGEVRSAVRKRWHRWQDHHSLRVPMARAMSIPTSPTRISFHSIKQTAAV
T2 sequence (P24387 whole entry): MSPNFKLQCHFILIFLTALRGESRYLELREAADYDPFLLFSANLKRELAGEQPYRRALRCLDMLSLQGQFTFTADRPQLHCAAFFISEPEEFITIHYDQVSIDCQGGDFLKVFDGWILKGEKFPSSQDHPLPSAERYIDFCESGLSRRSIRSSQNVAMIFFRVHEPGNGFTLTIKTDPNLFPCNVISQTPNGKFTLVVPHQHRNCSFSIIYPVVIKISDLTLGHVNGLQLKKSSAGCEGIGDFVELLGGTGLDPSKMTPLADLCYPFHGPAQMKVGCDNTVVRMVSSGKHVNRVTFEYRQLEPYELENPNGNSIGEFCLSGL

[3] = target: T2, Corticotropin-releasing factor receptor 2/Corticotropin-releasing factor-binding protein; assay: Dose Response confirmation of uHTS hits for small molecule antagonists of the CRF-binding protein and CRF-R2 receptor complex.; assay type: functional; conditions: read-out: IC50_Mean
Cytochrome P450 2D6 = Cytochrome P450 2D6 (Homo sapiens, UniProt P10635);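 also: CYP2D6 member of a cytochrome P450 panel assay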
Cytochrome P450 2C9 = Cytochrome P450 2C9 (Homo sapiens, UniProt P11712)
Cytochrome P450 3A4 = Cytochrome P450 3A4 (Homo sapiens, UniProt P08684);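 also: CYP3A4 tested as one member of a cytochrome P450 panel screen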
[4] = target: T3, Carboxy-terminal domain RNA polymerase II polypeptide A small phosphatase 1 (Homo sapiens, UniProt Q9GZU7); assay: CTDSP1 inhibitors, concentration-response, biochemical, absorbance readout, ultra-high-throughput screen actives (AID 540297); assay type: functional
T3 sequence (Q9GZU7 whole entry): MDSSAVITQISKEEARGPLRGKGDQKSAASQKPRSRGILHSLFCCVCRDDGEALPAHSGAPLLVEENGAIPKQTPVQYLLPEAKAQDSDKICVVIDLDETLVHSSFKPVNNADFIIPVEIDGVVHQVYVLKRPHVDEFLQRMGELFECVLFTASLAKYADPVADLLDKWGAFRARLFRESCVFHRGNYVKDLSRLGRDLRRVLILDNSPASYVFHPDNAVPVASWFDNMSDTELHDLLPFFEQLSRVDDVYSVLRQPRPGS

[5] = target: T4, DNA repair protein RAD52 homolog (Homo sapiens, UniProt P43351); assay type: functional, biochemical
T4 sequence (P43351 whole entry): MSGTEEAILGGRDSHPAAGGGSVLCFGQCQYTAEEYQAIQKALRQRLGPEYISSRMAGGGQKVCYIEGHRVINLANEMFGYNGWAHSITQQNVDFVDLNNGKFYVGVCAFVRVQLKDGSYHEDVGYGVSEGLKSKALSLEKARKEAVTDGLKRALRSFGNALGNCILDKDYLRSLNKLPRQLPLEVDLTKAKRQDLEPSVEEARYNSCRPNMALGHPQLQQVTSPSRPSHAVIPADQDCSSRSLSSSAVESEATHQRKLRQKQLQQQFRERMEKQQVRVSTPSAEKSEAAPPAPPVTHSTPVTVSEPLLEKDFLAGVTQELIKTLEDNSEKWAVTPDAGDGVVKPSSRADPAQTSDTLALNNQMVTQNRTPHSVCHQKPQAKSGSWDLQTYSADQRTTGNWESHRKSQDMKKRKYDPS

[6] = viability of HCT116 lacking mutant beta-catenin – cell-based, human colon tumor, dose response (AID 1045); assay type: functional;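 also: HCT116 colon tumor cells with beta catenin knocked out; cells exposed to compound for 60 hours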
[7] = viability of PTEN-deleted HCT116 cells – cell-based, HCT116 PTEN knockout, dose response (AID 1047); assay type: functional;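 also: HCT116 colon tumor cells with PTEN knocked out; cells exposed to compound for 60 hours before readout; potency for loss of cell viability measured by luminescence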
[8] = reduction of Shn3 3'UTR-driven luciferase in osteoblasts – cell-based, Clone20 osteoblasts, firefly luciferase, cherry-picked, dose response (AID 624132); assay type: functional;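 also: firefly luciferase luminescence from reporter carrying the Shn3 3'UTR in osteoblasts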
[9] = non-specific 3'UTR reporter inhibition in Clone20-Shn3RL – cell-based, Renilla luciferase, cherry-picked, counter-screen for Shn3 inhibitor project, dose response (AID 624133); assay type: functional
[10] = activation of miR-122 Renilla sensor silencing – cell-based, Huh7 psiCHECK-miR122, Renilla luciferase, cherry-picked, dose response (AID 651956); assay type: functional;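 also: huh7 hepatoma cells stably carrying a psiCHECK-2 miR-122 sensor plasmid; renilla luciferase signal reporting endogenous miR-122 activity after 48 h compound exposure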

Chain of Cytochrome P450 3A4 (P08684 whole entry, the tested form may be a part): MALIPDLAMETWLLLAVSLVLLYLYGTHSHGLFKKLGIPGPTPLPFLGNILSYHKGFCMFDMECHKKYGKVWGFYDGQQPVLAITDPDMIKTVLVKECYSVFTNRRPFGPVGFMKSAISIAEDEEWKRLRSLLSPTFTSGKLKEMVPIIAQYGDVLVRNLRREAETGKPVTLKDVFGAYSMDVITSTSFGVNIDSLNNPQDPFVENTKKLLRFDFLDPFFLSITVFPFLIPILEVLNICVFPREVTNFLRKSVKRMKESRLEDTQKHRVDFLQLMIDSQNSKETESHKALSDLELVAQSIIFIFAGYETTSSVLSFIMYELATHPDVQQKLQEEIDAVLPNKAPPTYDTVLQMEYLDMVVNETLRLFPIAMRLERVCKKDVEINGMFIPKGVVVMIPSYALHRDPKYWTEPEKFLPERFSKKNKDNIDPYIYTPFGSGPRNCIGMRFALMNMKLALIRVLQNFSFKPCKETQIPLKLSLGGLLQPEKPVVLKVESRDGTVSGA
Chain of Cytochrome P450 2C9 (P11712 whole entry): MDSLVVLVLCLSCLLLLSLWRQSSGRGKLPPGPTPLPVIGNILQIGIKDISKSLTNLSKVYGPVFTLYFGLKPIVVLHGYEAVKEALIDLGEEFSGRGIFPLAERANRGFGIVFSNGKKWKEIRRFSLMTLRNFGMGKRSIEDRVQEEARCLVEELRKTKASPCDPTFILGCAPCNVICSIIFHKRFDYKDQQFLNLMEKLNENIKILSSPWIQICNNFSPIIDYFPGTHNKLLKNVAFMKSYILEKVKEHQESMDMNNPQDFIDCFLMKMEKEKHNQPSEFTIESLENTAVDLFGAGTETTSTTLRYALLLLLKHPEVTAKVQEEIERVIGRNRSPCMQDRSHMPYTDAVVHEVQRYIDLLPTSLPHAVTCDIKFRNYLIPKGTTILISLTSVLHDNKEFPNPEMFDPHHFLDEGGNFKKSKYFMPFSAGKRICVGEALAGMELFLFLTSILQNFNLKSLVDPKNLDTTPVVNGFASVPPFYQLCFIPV
Chain of Cytochrome P450 2D6 (P10635 whole entry): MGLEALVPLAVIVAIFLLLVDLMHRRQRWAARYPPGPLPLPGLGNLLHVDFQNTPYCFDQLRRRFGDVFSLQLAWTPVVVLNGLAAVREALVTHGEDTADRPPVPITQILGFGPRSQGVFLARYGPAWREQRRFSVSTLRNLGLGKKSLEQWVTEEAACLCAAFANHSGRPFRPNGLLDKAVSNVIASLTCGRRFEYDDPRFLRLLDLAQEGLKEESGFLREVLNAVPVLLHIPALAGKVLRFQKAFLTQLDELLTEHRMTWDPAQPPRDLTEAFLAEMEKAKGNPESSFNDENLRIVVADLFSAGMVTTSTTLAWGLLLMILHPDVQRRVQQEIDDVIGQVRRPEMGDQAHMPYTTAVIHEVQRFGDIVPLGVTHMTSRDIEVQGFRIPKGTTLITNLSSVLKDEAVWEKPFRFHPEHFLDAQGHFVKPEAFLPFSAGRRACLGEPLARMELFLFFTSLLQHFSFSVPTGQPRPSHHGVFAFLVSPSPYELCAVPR

## N=C(N)SCc1ccccn1
[1]
  IC50: 13.2 µM (active)

## COCCn1nnnc1C(c1ccccc1)N1CCN(c2ccccc2)CC1 (centres undefined)
[2]
  EC50: > 53 µM (inactive)
[3]
  IC50: > 47.1 µM (inactive)

## Cc1nc2cnc(Nc3ccccc3)nc2n(C)c1=O
Cytochrome P450 2D6
  AC50: 39.8 µM (inconclusive)
Cytochrome P450 2C9
  AC50: 20 µM (inconclusive)
Cytochrome P450 3A4
  AC50: 15.8 µM (inconclusive)

## CSc1ccc(/C=N/NC(=O)c2cccc(Cl)c2)cc1
[4]
  IC50: 13.4 µM (active)

## Nc1ccc(CC(N)c2csc(Nc3ncccn3)n2)cc1 (centres undefined)
[5]
  AC50: 19.2 µM (active)

## CCCCN(C(=O)c1ccc2c(c1)S(=O)(=O)N=C1CCCCCN12)c1c(N)n(CCCC)c(=O)[nH]c1=O
[2]
  EC50: > 53 µM (inactive)
[3]
  IC50: > 47.1 µM (inactive)

## O=C(CC(CC(=O)c1ccccc1)c1ccncc1)c1ccccc1
[2]
  EC50: > 53 µM (inactive)
[3]
  IC50: > 47.1 µM (inactive)

## O=C(NCCCO)C(=O)Nc1cc2c3c(c1)CCN3C(=O)CC2
[2]
  EC50: > 53 µM (inactive)
[3]
  IC50: > 47.1 µM (inactive)

## O=C(N/N=C/c1ccccc1OC(=O)c1ccc2c(c1)OCO2)c1ccccc1
[6]
  EC50: 18.9 µM (active)
[7]
  EC50: 20.9 µM (active)

## CCOc1ccc2nc(O)c(CN(Cc3cccs3)C(CC)c3nnnn3C(C)(C)CC)cc2c1 (centres undefined)
[6]
  EC50: 5.11 µM (active)
[7]
  EC50: 4.69 µM (active)

## Cc1cc(N2CCC(N(C)C3CCCC3)CC2)nc2cc(O)ccc12
[5]
  AC50: 11.3 µM (active)

## CCc1ccc(N2C(=O)NC(=O)/C(=C\NCCN(CC)CC)C2=O)cc1
[8]
  AC50: > 70 µM (inactive)
[9]
  AC50: 27.8 µM (active)

## Cc1csc(=N)n1CC(=O)N1CCc2ccccc21
[1]
  IC50: 13.2 µM (active)

## O=C(N/N=C/c1cc(Cl)cc([N+](=O)[O-])c1O)c1cc(-c2ccccn2)nc2ccccc12
[4]
  IC50: 1.85 µM (active)

## O=C(O)c1cccc2c1C(=O)N(c1ccc3c(c1)Cc1ccccc1-3)C2=O
[4]
  IC50: 7.59 µM (active)

## Cc1ccc(Cl)cc1NC(=O)CSc1sc2c(O)cc(O)nc2c1C#N
[4]
  IC50: 4.49 µM (active)

## C[C@@H]1CN([C@@H](C)CO)C(=O)c2cc(NC(=O)Nc3cccc4ccccc34)ccc2O[C@@H](C)CCCCO[C@H]1CN(C)CC1CCCCC1
[10]
  AC50: 8.95 µM (active)

## O=C(O)CCNc1ccc(Cl)cc1
[4]
  IC50: 16.9 µM (active)

## CCC(C)[C@H](NC(=O)[C@@H]1Cc2ccccc2CN1C(=O)OC(C)(C)C)C(=O)NC[C@H]1CC[C@H](C(=O)O)CC1 (some centres undefined) (Boc-[Tic]-[Ile(3ξ)]-[Trx]-OH)
[2]
  EC50: > 53 µM (inactive)
[3]
  IC50: > 47.1 µM (inactive)
